In paper PMC9698483, “Berbamine Reduces Chloroquine-Induced Itch in Mice through Inhibition of MrgprX1” (International Journal of Molecular Sciences, 2022):

How the values were obtained:
[1] = biological target: T1, TGR5 (Homo sapiens, UniProt Q8TDU6); assay: TGR5 activity by YFP fluorescence quenching assay in CHO-K1 cells; type: cell-based; details: 30 μM with 80 μM DCA for 10 min
T1 construct: expressed in transfected cells; host or cells: CHO-K1
T1 sequence (Q8TDU6 1-330): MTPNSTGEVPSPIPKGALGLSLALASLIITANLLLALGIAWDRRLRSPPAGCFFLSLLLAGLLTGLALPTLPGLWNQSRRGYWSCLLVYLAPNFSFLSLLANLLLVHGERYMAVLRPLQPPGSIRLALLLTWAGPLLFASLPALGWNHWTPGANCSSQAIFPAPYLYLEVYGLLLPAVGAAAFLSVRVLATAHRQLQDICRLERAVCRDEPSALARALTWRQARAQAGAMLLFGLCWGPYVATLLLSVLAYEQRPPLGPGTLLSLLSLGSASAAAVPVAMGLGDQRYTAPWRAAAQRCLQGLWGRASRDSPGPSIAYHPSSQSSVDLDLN
Description: (§1) Figure 3 Effects of berbamine on the activity of other pruritogenic GPCRs: (A,B) Effect of berbamine on histamine 1 receptor (H1R) and histamine 4 receptor (H4R). H1R- and H4R-expressing HEK293T cells were pretreated with 30 μM BBM for 10 min prior to 100 μM histamine treatment. […] (C) Effect of berbamine on PAR2. HT29 cells were pretreated with BBM for 10 min prior to 30 μM PAR2-AP treatment. […] (D) Effect of berbamine on MrgprC11. MrgprC11-expressing HEK293T cells were pretreated with BBM for 10 min prior to 100 μM […] treatment. (E) Effect of berbamine on MrgprX4. MrgprX4-expressing HEK293T cells were pretreated with BBM for 10 min prior to 80 μM DCA treatment. (F) Effect of berbamine on TGR5. TGR5 activity was measured using a YFP fluorescence quenching assay. CHO-K1 cells coexpressing TGR5 and a halide sensor YFP were pretreated with BBM and 80 μM DCA for 10 min prior to I^- treatment. Results were summarized as means ± S.E. (n = 6). NTC, nontransfected cells.
All modulators were dissolved in DMSO, and cells were treated with a final concentration of 1% DMSO.

[2] = tested on: PAR2-AP-induced itch; assay: PAR2-AP-induced pruritus in mice (scratching bouts); type: in vivo, BALB/c mice; details: 30 mg/kg i.p., PAR2-AP 100 μg/50 μL
Description: To investigate the antipruritic effect of berbamine, we observed the effect of berbamine on pruritogen-induced scratching behavior in BALB/c mice. Mice were transferred to clear cages and treated with berbamine intraperitoneally after a 30 min acclimatization period. Mouse behavior was recorded for 30 min right after the subcutaneous injection of pruritogens to the nape 30 min after berbamine treatment (Figure 7A). […] We further investigated the effect of berbamine on pruritus caused by other pruritogens.
Figure 7 Effect of berbamine on acute pruritogen-induced pruritus in mice: (A) Scheme of acute pruritogen-induced pruritus mouse model. […] Statistical significance of differences between each group and CQ group was assessed using one-way ANOVA with Tukey’s post hoc test. * p < 0.05, ** p < 0.01, *** p < 0.001. […] Statistical significance of differences was determined using Student’s t-test. […]
[…] six-week-old BALB/c male mice were purchased from DBL (Chungcheong-do, Republic of Korea), and an additional 1 week was given for accommodation. […] After 30 min, pruritogen compounds (i.e., CQ, histamine, PAR2-AP, and DCA) were subcutaneously administered into the nape, and scratching bouts were recorded for 30 min. […] The total number of scratching bouts was counted by recording the number of scratching bouts in the recorded video over 30 min of observation time.

[3] = biological target: T2, PAR2 (Homo sapiens, UniProt P55085); assay: PAR2-AP-induced activation of PAR2 in HT29 cells (calcium); type: cell-based; details: 30 μM compound, 10 min prior to 30 μM PAR2-AP
T2 construct: endogenous in cells; host or cells: HT29
T2 sequence (P55085 26-397): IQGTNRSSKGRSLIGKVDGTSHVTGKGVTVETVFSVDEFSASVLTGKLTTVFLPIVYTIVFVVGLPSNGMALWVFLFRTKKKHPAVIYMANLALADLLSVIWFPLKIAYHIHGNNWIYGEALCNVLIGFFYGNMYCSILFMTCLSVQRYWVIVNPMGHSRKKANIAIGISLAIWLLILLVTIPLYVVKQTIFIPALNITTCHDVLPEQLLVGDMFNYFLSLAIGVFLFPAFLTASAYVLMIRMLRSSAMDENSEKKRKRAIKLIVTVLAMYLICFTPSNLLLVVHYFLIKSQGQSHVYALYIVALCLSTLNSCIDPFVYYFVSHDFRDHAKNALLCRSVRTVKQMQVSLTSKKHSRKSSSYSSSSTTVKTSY
Description: (§2) To investigate the effect of berbamine on other pruritogenic GPCRs, we observed the effect of berbamine on histamine H1 receptor (H1R), histamine H4 receptor (H4R), MrgprC11, MrgprX4, PAR2, and TGR5.
as §1
(§3) Intracellular calcium levels were measured using a Fluo-4 NW calcium assay kit (Invitrogen, Carlsbad, CA) as per the manufacturer’s protocol in HEK293T and HT29 cells. […]

[4] = parameters: method as in PMID 29100757; details: human pharmacokinetic study; cited from earlier work
[5] = biological target: T3, MrgprC11 (Mus musculus, UniProt Q8CIP3); assay: Activation of MrgprC11 in MrgprC11-expressing HEK293T cells (calcium); type: cell-based
T3 construct: expressed in transfected cells; host or cells: HEK293T
T3 sequence (Q8CIP3 1-322): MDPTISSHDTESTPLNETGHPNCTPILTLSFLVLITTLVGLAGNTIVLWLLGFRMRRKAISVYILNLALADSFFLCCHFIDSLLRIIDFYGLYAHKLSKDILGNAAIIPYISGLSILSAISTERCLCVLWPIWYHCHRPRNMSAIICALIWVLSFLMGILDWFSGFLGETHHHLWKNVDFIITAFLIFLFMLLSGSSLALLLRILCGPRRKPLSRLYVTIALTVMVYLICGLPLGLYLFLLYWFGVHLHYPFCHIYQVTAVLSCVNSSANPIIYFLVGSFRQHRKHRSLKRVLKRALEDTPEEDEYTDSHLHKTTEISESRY
Description: as §2, §1, §3

COc1cc2c3cc1Oc1c(OC)c(OC)cc4c1[C@@H](Cc1ccc(O)c(c1)Oc1ccc(cc1)C[C@@H]3N(C)CC2)N(C)CC4 [berbamine]
effect on DCA-induced activation of TGR5 [1]: did not alter
effect on total scratching bouts induced by PAR2-AP [2]: no significant effect
effect on PAR2-AP-induced activation of PAR2 [3]: did not affect
half-life [4]: 39.25 h
effect on PAR2-AP-induced activation of MrgprC11 ([5]; 30 μM, 10 min prior to 100 μM PAR2-AP): did not affect
inhibitory effect on the activation of MrgprC11 by BAM8-22 ([5]; concentrations up to 30 μM, 500 nM BAM8-22): minimal inhibitory effect
